system: TNF-alpha release in THP-1 cells; assay: LPS-induced TNF-alpha release in THP-1 cells; type: cell-based; conditions: Homo sapiens, THP-1, LPS-stimulated THP-1 cells; read-out: 50% inhibition in the LPS-induced TNF-alpha release in THP-1 cells assay at concentrations within the range
Procedure: The effects of compounds on TNF-alpha production by lipopolysaccharide (LPS)-stimulated […] monocytes were examined as follows.
Undifferentiated THP-1 cells were maintained in RPMI 1640 with Glutamax I containing β-mercaptoethananol (50 μM) and foetal calf serum (FCS-10%) at densities of about 1×10^6 cells per ml. For incubations without and with test reagents, cells were seeded at the indicated densities under serum-deprived (1% FCS) conditions. Compounds were dissolved in dimethylsulfoxide (DMSO-100%) and incubated with the cells to give a fmal DMSO concentration of 0.3%. Control and untreated cell samples were incubated with DMSO (0.3%).
THP-1 cells (1×10 ^6 cells/ml, total volume 150 μl) in culture medium were incubated for 1 hour (5% CO2, 37° C.) with fresh medium containing compounds or vehicle (0.1-0.3% dimethylsulfoxide). LPS (20 μg/ml) was then added to the cells and the incubation continued for a fuirther 18 hours. Cell supernatants were removed into 96 well plates for storage at −20° C.
TNF-alpha concentrations in cell supernatants were quantified by sandwich ELISA. Briefly, ELISA plates were coated overnight with 2 μg/ml of mouse anti-human TNF-alpha antibody in bicarbonate buffer (pH 9.9). After washing the wells with wash buffer (0.05% (v/v) Tween in PBS)and blocking unoccupied sites (1% BSA in wash buffer), monocyte supernatant samples or human recombinant TNF-alpha standards were added into the corresponding wells of the ELISA plate at 1:10 dilution. Biotinylated rabbit polyclonal anti-human TNF-alpha antibody (3 μg/ml) was used as the second antibody and streptavidin-horseradish peroxidase was used as the detection antibody. The peroxidase substrate is 3,3′,5,5′-tetramethylbenzidine (TMB) in the presence of hydrogen peroxide.
TNFα concentrations in supernatants from control and LPS-stimulated monocyte incubations were calculated by interpolation from a standard (log/log) curve (0.125-16 ng/ml) fitted by Excel Fit using the Activity Base software. Compounds were tested within the concentration range of 1×10^−9M to 1×10^−6M.

Row | Structure (SMILES) | IC50 [nM]
1 | COc1cc(OC)cc(C(=O)N2CCC(Cc3ccc(NC(=O)Nc4cc(C(C)(C)C)nn4-c4ccc(C)cc4)cc3)CC2)c1 [Compound A266, 1-(5-tert-Butyl-2-p-tolyl-2H-pyrazol-3-yl)-3-{4-[1-(3,5-dimethoxy-benzoyl)-piperidin-4-ylmethyl]-phenyl}-urea] | 10 to 500
2 | Cc1ccc(-n2nc(C(C)(C)C)cc2NC(=O)Nc2cccc(CC3CC4CCC(C3)N4C(=O)Cc3cn(C)c4ccccc34)c2)cc1 (centres unmarked) [Compound A641, 1-(5-tert-Butyl-2-p-tolyl-2H-pyrazol-3-yl)-3-(3-{8-[2-(1-methyl-1H-indol-3-yl)-acetyl]-8-aza-bicyclo[3.2.1]oct-3-ylmethyl}-phenyl)-urea] | 10 to 500
3 | Cc1ccc(-n2nc(C(C)(C)C)cc2NC(=O)Nc2ccc(CC3CCN(C(=O)c4csc(-c5ccncc5)n4)CC3)cc2)cc1 [Compound A227, 1-(5-tert-Butyl-2-p-tolyl-2H-pyrazol-3-yl)-3-{4-[1-(2-pyridin-4-yl-thiazole-4-carbonyl)-piperidin-4-ylmethyl]-phenyl}-urea] | 10 to 500
4 | COc1cccc(CC(=O)N2CCC(Cc3cccc(NC(=O)Nc4cc(C(C)(C)C)nn4-c4ccc(C)cc4)c3)CC2)c1OC [Compound A22, 1-(5-tert-Butyl-2-p-tolyl-2H-pyrazol-3-yl)-3-(3-{1-[2-(2,3-dimethoxy-phenyl)-acetyl]-piperidin-4-ylmethyl}-phenyl)-urea] | 10 to 500
5 | Cc1ccc(-n2nc(C(C)(C)C)cc2NC(=O)Nc2cccc(CC3CCN(C(=O)c4ccoc4C)CC3)c2)cc1 [Compound A52, 1-(5-tert-Butyl-2-p-tolyl-2H-pyrazol-3-yl)-3-{3-[1-(2-methyl-furan-3-carbonyl)-piperidin-4-ylmethyl]-phenyl}-urea] | 10 to 500
6 | COc1ccc(OC)c(S(=O)(=O)N2CCC(Cc3ccc(NC(=O)Nc4cc(C(C)(C)C)nn4-c4ccc(C)cc4)cc3)CC2)c1 [Compound A564, 1-(5-tert-Butyl-2-p-tolyl-2H-pyrazol-3-yl)-3-{4-[1-(2,5-dimethoxy-benzenesulfonyl)-piperidin-4-ylmethyl]-phenyl}-urea] | 10 to 500
7 | Cc1ccc(-n2nc(C(C)(C)C)cc2NC(=O)Nc2cccc(CC3CCN(C(=O)Cc4ccc5c(c4)OCO5)CC3)c2)cc1 [Compound A70, 1-{3-[1-(2-Benzo[1,3]dioxol-5-yl-acetyl)-piperidin-4-ylmethyl]-phenyl}-3-(5-tert-butyl-2-p-tolyl-2H-pyrazol-3-yl)-urea] | 10 to 500
8 | Cc1ccc(-n2nc(C(C)(C)C)cc2NC(=O)Nc2ccc(CC3CCN(C(=O)Cc4ccc5c(c4)OCO5)CC3)cc2)cc1 [Compound A263, 1-{4-[1-(2-Benzo[1,3]dioxol-5-yl-acetyl)-piperidin-4-ylmethyl]-phenyl}-3-(5-tert-butyl-2-p-tolyl-2H-pyrazol-3-yl)-urea] | 10 to 500
9 | CCCCC#CC(=O)N1CCC(Cc2ccc(NC(=O)Nc3cc(C(C)(C)C)nn3-c3ccc(C)cc3)cc2)CC1 [Compound A238, 1-(5-tert-Butyl-2-p-tolyl-2H-pyrazol-3-yl)-3-[4-(1-hept-2-ynoyl-piperidin-4-ylmethyl)-phenyl]-urea] | 10 to 500
10 | Cc1ccc(-n2nc(C(C)(C)C)cc2NC(=O)Nc2cccc(CC3CCN(C(=O)c4n[nH]c5ccccc45)CC3)c2)cc1 [Compound A167, 1-(5-tert-Butyl-2-p-tolyl-2H-pyrazol-3-yl)-3-{3-[1-(1H-indazole-3-carbonyl)-piperidin-4-ylmethyl]-phenyl}-urea] | 10 to 500
11 | Cc1ccc(-n2nc(C(C)(C)C)cc2NC(=O)Nc2cccc(CC3CCN(C(=O)c4ccc5cccnc5n4)CC3)c2)cc1 [Compound A8, 1-(5-tert-Butyl-2-p-tolyl-2H-pyrazol-3-yl)-3-{3-[1-([1,8]naphthyridine-2-carbonyl)-piperidin-4-ylmethyl]-phenyl}-urea] | 10 to 500
12 | Cc1ccc(-n2nc(C(C)(C)C)cc2NC(=O)Nc2ccc(CC3CCN(C(=O)C4=Cc5occc5CC4)CC3)cc2)cc1 [Compound A1642, 1-(5-tert-Butyl-2-p-tolyl-2H-pyrazol-3-yl)-3-{4-[1-(4,5-dihydro-benzofuran-6-carbonyl)-piperidin-4-ylmethyl]-phenyl}-urea] | 10 to 500
13 | Cc1ccc(-n2nc(C(C)(C)C)cc2NC(=O)Nc2cccc(CC3CCN(C(=O)Cc4c[nH]c5ccccc45)CC3)c2)cc1 [Compound A168, 1-(5-tert-Butyl-2-p-tolyl-2H-pyrazol-3-yl)-3-{3-[1-(2-1H-indol-3-yl-acetyl)-piperidin-4-ylmethyl]-phenyl}-urea] | 10 to 500
14 | Cc1ccc(-n2nc(C(C)(C)C)cc2NC(=O)Nc2cccc(CC3CCN(C(=O)c4nccc5ccccc45)CC3)c2)cc1 [Compound A13, 1-(5-tert-Butyl-2-p-tolyl-2H-pyrazol-3-yl)-3-{3-[1-(isoquinoline-1-carbonyl)-piperidin-4-ylmethyl]-phenyl}-urea] | 10 to 500
15 | COc1ccc(CC(=O)N2CCC(Cc3cccc(NC(=O)Nc4cc(C(C)(C)C)nn4-c4ccc(C)cc4)c3)CC2)cc1OC [Compound A69, 1-(5-tert-Butyl-2-p-tolyl-2H-pyrazol-3-yl)-3-(3-{1-[2-(3,4-dimethoxy-phenyl)-acetyl]-piperidin-4-ylmethyl}-phenyl)-urea] | 10 to 500
16 | Cc1ccc(-n2nc(C(C)(C)C)cc2NC(=O)Nc2cccc(CC3CCN(C(=O)c4cccc(C(C)C#N)c4)CC3)c2)cc1 (centres unmarked) [Compound A79, 1-(5-tert-Butyl-2-p-tolyl-2H-pyrazol-3-yl)-3-(3-{1-[3-(cyano-methyl-methyl)-benzoyl]-piperidin-4-ylmethyl}-phenyl)-urea] | 10 to 500

Second part, the molecule after the results:

Row | IC50 [nM] | Structure (SMILES)
17 | 10 to 500 | Cc1ccc(-n2nc(C(C)(C)C)cc2NC(=O)Nc2ccc(CC3CCN(C(=O)c4csnn4)CC3)cc2)cc1 [Compound A196, 1-(5-tert-Butyl-2-p-tolyl-2H-pyrazol-3-yl)-3-{4-[1-([1,2,3]thiadiazole-4-carbonyl)-piperidin-4-ylmethyl]-phenyl}-urea]
18 | 10 to 500 | CO[C@H](C(=O)N1CCC(Cc2ccc(NC(=O)Nc3cc(C(C)(C)C)nn3-c3ccc(C)cc3)cc2)CC1)c1ccccc1 [Compound A193, 1-(5-tert-Butyl-2-p-tolyl-2H-pyrazol-3-yl)-3-{4-[1-((S)-2-methoxy-2-phenyl-acetyl)-piperidin-4-ylmethyl]-phenyl}-urea]
19 | 10 to 500 | Cc1ccc(-n2nc(C(C)(C)C)cc2NC(=O)Nc2ccc(CC3CCN(C(=O)c4cc5ccccc5o4)CC3)cc2)cc1 [Compound A232, 1-{4-[1-(Benzofuran-2-carbonyl)-piperidin-4-ylmethyl]-phenyl}-3-(5-tert-butyl-2-p-tolyl-2H-pyrazol-3-yl)-urea]
20 | 10 to 500 | COc1cccc(CC(=O)N2CCC(Cc3ccc(NC(=O)Nc4cc(C(C)(C)C)nn4-c4ccc(C)cc4)cc3)CC2)c1 [Compound A288, 1-(5-tert-Butyl-2-p-tolyl-2H-pyrazol-3-yl)-3-(4-{1-[2-(3-methoxy-phenyl)-acetyl]-piperidin-4-ylmethyl}-phenyl)-urea]
21 | 10 to 500 | CCCC(=O)N1CCC(Cc2ccc(NC(=O)Nc3cc(C(C)(C)C)nn3-c3ccc(C)cc3)cc2)CC1 [Compound A343, 1-(5-tert-Butyl-2-p-tolyl-2H-pyrazol-3-yl)-3-[4-(1-butyryl-piperidin-4-ylmethyl)-phenyl]-urea]
22 | 10 to 500 | Cc1ccc(-n2nc(C(C)(C)C)cc2NC(=O)Nc2ccc(CC3CCN(C(=O)c4ccc5cc[nH]c5c4)CC3)cc2)cc1 [Compound A362, 1-(5-tert-Butyl-2-p-tolyl-2H-pyrazol-3-yl)-3-{4-[1-(1H-indole-6-carbonyl)-piperidin-4-ylmethyl]-phenyl}-urea]
23 | 10 to 500 | Cc1ccc(-n2nc(C(C)(C)C)cc2NC(=O)Nc2ccc(CC3CCN(C(=O)c4cnc5ccccc5c4)CC3)cc2)cc1 [Compound A384, 1-(5-tert-Butyl-2-p-tolyl-2H-pyrazol-3-yl)-3-{4-[1-(quinoline-3-carbonyl)-piperidin-4-ylmethyl]-phenyl}-urea]
24 | 10 to 500 | Cc1ccc(-n2nc(C(C)(C)C)cc2NC(=O)Nc2ccc(CC3CCN(C(=O)c4cc(C)c(C)o4)CC3)cc2)cc1 [Compound A298, 1-(5-tert-Butyl-2-p-tolyl-2H-pyrazol-3-yl)-3-{4-[1-(4,5-dimethyl-furan-2-carbonyl)-piperidin-4-ylmethyl]-phenyl}-urea]
25 | 10 to 500 | Cc1ccc(-n2nc(C(C)(C)C)cc2NC(=O)Nc2ccc(CC3CCN(C(=O)CCc4ccco4)CC3)cc2)cc1 [Compound A274, 1-(5-tert-Butyl-2-p-tolyl-2H-pyrazol-3-yl)-3-{4-[1-(3-furan-2-yl-propionyl)-piperidin-4-ylmethyl]-phenyl}-urea]
26 | 10 to 500 | Cc1ccc(-n2nc(C(C)(C)C)cc2NC(=O)Nc2ccc(CC3CCN(C(=O)c4cccnc4N)CC3)cc2)cc1 [Compound A231, 1-{4-[1-(2-Amino-pyridine-3-carbonyl)-piperidin-4-ylmethyl]-phenyl}-3-(5-tert-butyl-2-p-tolyl-2H-pyrazol-3-yl)-urea]
